# In US20210369691A1, “METHODS AND COMPOSITIONS FOR IMPROVING BONE MARROW HEMATOPOIETIC FUNCTIONS” (Sun Yat-Sen University, priority 2018, published 2021):
# What was measured:
# [1] = Survival after serial 5FU challenges every 7 days with ABC294640 every other day; type: in vivo, mice; details: vs control, FIG. 30
# Protocol: FIG. 30. illustrates the survival of C57BL/6J mice after serious 5FU treatment every 7 days and ABC294640 treatment every other day (n=10 mice group).
# Repopulation analyses was also performed to investigate whether ABC294640 treatment functionally promotes HSC regeneration after chemotherapeutic stress.
# platelets [2] = assay: Platelet recovery in peripheral blood after 5FU; type: in vivo, mice; details: after 5FU 150 mg/kg once; ABC294640 10 mg/kg every other day; days 0, 1, 5, 11; vs solvent control; FIG. 6
# Protocol: Preparation of the SphK2 inhibitor was as described in Example 4. Twelve 8-week-old C57 mice purchased from Laboratory Animal Center, Sun Yat-sen University were selected and divided evenly into two groups. The mice were intraperitoneally injected with 5FU at a dose of 150 mg/kg once. The injection of the inhibitor ABC294640 and the solvent control solution was as described in Example 4, which started from the day after 5-fluorouracil injection, followed by injections once every other day, at a dose of 10 mg/kg, until the end of the experiment. Periphery blood (PB) of each mouse was separately collected to determine white blood cell (WBC) counts 0, 1, 5 and 11 days after 5-FU administration. T-test analysis was carried out using Graphpad6.0, and differences were considered statistically significant when P<0.05.
# (§1) The experiment was conducted as described in Example 5. Periphery blood (PB) of each mouse was separately collected to determine platelets (PLT) counts 0, 1, 5 and 11 days after 5-FU administration. T-test analysis was carried out using Graphpad6.0, and differences were considered statistically significant when P<0.05.
# platelets [3] = assay: Platelet recovery in peripheral blood after X-ray radiation; type: in vivo, mice; details: after X-ray 450 cGy; ABC294640 10 mg/kg i.p. every other day; days 0, 1, 7, 14; vs solvent control; **P<0.01; FIG. 8
# Protocol: (§2) Preparation of SphK2 inhibitors was as described in Example 4. Twelve 8-week-old C57 mice purchased from Laboratory Animal Center, Sun Yat-sen University were selected and divided evenly into two groups. The mice were treated with X-ray radiation at a dose of 450 cGy. The injection of the inhibitor ABC294640 and the solvent control solution was as described in Example 4. Intraperitoneal injection of the inhibitor or the solvent control solution started from the day after the X-ray radiation, followed by injections once every other day, at a dose of 10 mg/kg, until the end of the experiment. Periphery blood (PB) of each mouse was separately collected to determine white blood cell (WBC) counts 0, 1, 7 and 14 days after X-ray radiation. T-test analysis was carried out using Graphpad6.0, and differences were considered statistically significant when P<0.05.
# as §1, with “Example 7.” for “Example 5.”, “1, 7” for “1, 5”, “and 14” for “and 11”, “after X-ray radiation.” for “after 5-FU administration.”
# white blood cells = assay: White blood cell recovery in peripheral blood after X-ray radiation; type: in vivo, mice; details: after X-ray 450 cGy; ABC294640 10 mg/kg i.p. every other day; days 0, 1, 7, 14; vs solvent control; FIG. 7
# Protocol: as §2
# hematopoietic stem cells [4] = assay: Hematopoietic repopulation by transplantation of bone marrow cells from inhibitor-treated mice; type: in vivo
# Protocol: To analyze whether Sphk2 deficient hematopoietic stem cells have increased hematopoietic function, 100 hematopoietic stem cells (Lin^−Sca-1^+c-Kit^+CD150^+CD48^−) from Sphk2 deficient mice or control donor mice were transplanted into irradiated wide-type recipients along with 2×10^5 CD45.1 bone marrow cells. Adult CD45.1 recipient mice were irradiated with an Orthovoltage X-ray source delivering approximately in two equal doses of 450 cGy at least 3 hours apart. Peripheral blood was collected from the tail vein every 4 weeks after the transplantation. Hematopoietic repopulation function was examined from donor-derived blood cells. To evaluate the hematopoietic function of the hematopoietic stem cells, 2×10^5 bone marrow cells from Sphk2 inhibitor or solvent control treated mice were transplanted into irradiated recipients (as described in Example 13). Peripheral blood was collected from the tail vein every 4 weeks after transplantation. The hematopoietic repopulation function was examined from donor-derived blood cells. The Sphk2 inhibitor was prepared as described in Example 4. Briefly, ABC294640 was purchased from Selleck and dissolved in dimethyl sulfoxide (DMSO), which was finally diluted with a mixture solution of polyethylene glycol 400 (PEG400) and physiological saline (1:1) to be administered at a dose of 10 mg/kg. […]
# hematopoietic stem cells [5] = assay: Hematopoietic stem cell number after bone marrow transplantation; type: in vivo, mice; details: 35 days after bone marrow transplantation (900 cGy); ABC294640 10 mg/kg i.p. every other day; **P<0.01; FIG. 10
# Protocol: Twenty-five 8-week-old C57 mice (purchased from Laboratory Animal Center, Sun Yat-sen University) were selected and kept in a specific pathogen free (SPF) environment. 5 mice were randomly selected and sacrificed by cervical dislocation. Femurs and tibias were taken and the bone marrow was obtained from the bone marrow cavity with an 1 ml syringe. Bone marrow was dispersed to form a single cell suspension and lysed with red blood cell lysis buffer for 2 min to remove red blood cells, followed by filtering through a 70 μm filter screen to obtain a single cell suspension. The other 20 mice were treated with X-ray radiation at a dose of 900 cGy, and were injected with 400,000 of the prepared bone marrow single cell suspension via tail vein, respectively. Then, the recipient mice were divided evenly into 2 groups, and mice of the ABC294640 treatment group were subjected to intraperitoneal injection of ABC294640 every other day. Mice in the control group was injected with a solvent solution control (1:1 of physiological saline: PEG400) solution. […] Statistical quantification was performed to determine the number of hematopoietic stem cells using the molecular marker system Lin-Sca-1+c-Kit+CD150+CD48− in combination with flow cytometry. […]
compound,measurement,setting,value
"O=C(NCc1ccncc1)C12CC3CC(C1)CC(c1ccc(Cl)cc1)(C3)C2 [ABC294640, 3-(4-chloro-phenyl)-adamantane-1-carboxylic acid (pyridin-4-ylmethyl)-amide]",survival,[1],notably increased survival
same,number of platelets from the peripheral blood,platelets [2],significantly increased
same,number of platelets in the peripheral blood,platelets [3],significantly increased
same,number of white blood cells from the peripheral blood,white blood cells,significantly increased
same,increase of hematopoietic reconstitution level,"hematopoietic stem cells [4]; 16 weeks after transplantation of 2x10^5 bone marrow cells from treated mice, FIG. 14 panel c",1.5 fold
same,generation of multi-hematopoietic lineages in recipients,"hematopoietic stem cells [4]; recipients of bone marrow cells from inhibitor-treated mice, FIG. 14 panel d",able to generate multi-hematopoietic lineages
same,number of hematopoietic stem cells in bone marrow,hematopoietic stem cells [5],increased remarkably
